Key:
Type in all cases: in vivo, human
[1] = Experiment 3: case report, levosimendan infusion added to diuretics in a person with dilating cardiomyopathy
Experimental: Person was admitted to hospital due to worsened dyspnea. They suffered from idiopathic dilating cardiomyopathy and their left ventricular ejection fraction was 26%. They were treated with diuretics (furosemide and spironolactone) as well as perindopril, bisoprolol and digitalis without positive response for one week. Levosimendan infusion of 0.05 microg/kg/min was added. During the next 24 hours they urinated 3500 ml and during the next five days their weight decreased from 66.5 kg to 62.5 kg, although it had not changed at all before the infusion of levosimendan.

[2] = Experiment 1: case report, levosimendan infusion added to diuretics in a person with congestive heart failure; settings: for daily urine volume: 850-1850 ml before start
Excerpt: Person was admitted to hospital due to congestive heart failure. In cardiac echocardiography they had ejection fraction below 30%, moderate regurgitation of mitral valve and dilative cardiomyopathy. According to coronary angiography invasive procedures such as angioplasty or coronary by-pass surgery were not possible. During the first four days at hospital they received diuretics (furosemide and spironolactone) as well as lisinopril, bisoprolol, antibiotics and allopurinol without any positive response. Their dyspnea worsened and peripheral oedema increased. Levosimendan infusion was added with the dose of 0.05 microg/kg/min and was increased to 0.1 microg/kg/min after two hours, the infusion lasted 24 hours, no bolus infusion was used due to low blood pressure. During the next day patient told that they felt better and dyspnea and periphera oedema decreased. […] The daily urine volumes varied between 850 and 1850 ml before the start of levosimendan, and increased up to 6350 ml on the day they received levosimendan, and were 3800 ml on the day after levosimendan infusion, after that they went down to normal.

[3] = Experiment 2: case report, levosimendan infusion added to vasodilators and diuretics in a person with dyspnea and lung oedema
Experimental: Person was admitted to hospital due to severely worsened dyspnea. They suffered from coronary artery disease with no possibilities for re-vascularisation. They had ejection fraction below 35%, markedly elevated end-diastolic pressure and moderate mitral regurgitation. […] They were treated with positive pressure ventilation, vasodilators and diuretics for three days without positive response. Levosimendan fusion with a bolus and continuous infusion rate up to 0.2 microg/kg/min was added. The infusion lasted 24 hours. Before the infusion their daily urinary volumes varied between 2150 and 2730 ml. On the day levosimendan was started their urinary volume was 2650 and increased to 3855, 2890 and 2790 ml during the next consecutive days, and their fluid balance was 8500 ml negative during the four next days after the infusion of levosimendan.

## C[C@@H]1CC(=O)NN=C1c1ccc(NN=C(C#N)C#N)cc1 [levosimendan, (−)-enantiomer of [[4-(1,4,5,6-tetrahydro-4-methyl-6-oxo-3-pyridazinyl)phenyl]hydrazono]propanedinitrile]
[1]; after the next five days, decreased from 66.5 kg, no change before the infusion
  body weight: 62.5 kg
[1]; during the next 24 hours after levosimendan 0.05 microg/kg/min was added to furosemide and spironolactone
  urine volume: 3500 mL
[2]; after the levosimendan infusion was added to diuretics
  urinary volumes (in words): increased markedly
[2]; during the next day after the levosimendan infusion was added
  dyspnea and peripheral oedema: decreased
[2]; on the day after levosimendan infusion
  daily urine volume: 3800 mL
[2]; on the day they received levosimendan (0.05 then 0.1 microg/kg/min, 24 h infusion) on top of furosemide and spironolactone
  daily urine volume: 6350 mL
[3]; during the four next days after the infusion of levosimendan
  fluid balance (negative): 8500 mL
[3]; first consecutive day after levosimendan start, 2150-2730 ml before infusion
  daily urinary volume: 3855 mL
[3]; on the day levosimendan was started (bolus plus infusion up to 0.2 microg/kg/min, 24 h) on top of diuretics, 2150-2730 ml before infusion
  daily urinary volume: 2650 mL
[3]; second consecutive day after levosimendan start
  daily urinary volume: 2890 mL
[3]; third consecutive day after levosimendan start
  daily urinary volume: 2790 mL
